Activity calls are given as the source filed them. The calls are words filed in the database; no cut-off is given here.
Legend:
[1] = Metabolic stability in human liver microsomes assessed as intrinsic clearance at 1 uM incubated for 30 mins in presence of NADPH by LC-MS/MS analysis; format: ADME, Microsome; conditions: read-out: CLH
[2] = Lipophilicity, logD of compound in octanol and aqueous buffer at pH 7.4 incubated for 2 hrs by shake-flask method based LC-MS/MS analysis; format: physicochemical
[3] = Metabolic stability in CD-1 mouse hepatocytes assessed as intrinsic clearance measured per 10^6 cells at 1 uM incubated for 120 mins by LC-MS/MS analysis; format: ADME, cell-based, Hepatocyte; conditions: read-out: CLH
[4] = Metabolic stability in rat hepatocytes assessed as intrinsic clearance measured per 10^6 cells at 1 uM incubated for 120 mins by LC-MS/MS analysis; format: ADME, cell-based, Hepatocyte; conditions: read-out: CLH
[5] = Intrinsic permeability in human Caco-2 cells at 10 uM; format: ADME, cell-based; conditions: read-out: permeability
[6] = Selectivity ratio of IC50 for inhibition of recombinant wildtype human N-terminal GST-tagged EGFR cytoplasmic domain (669 to 1210 residues) expressed in Sf21 insect cells to IC50 for inhibition of 6His-tagged TEV-GS fused EGFR D770_N771insNPG mutant (G696 to G1210 reisudes) (unknown origin) expressed in Sf21 cells
[7] = target: T1, Epidermal growth factor receptor (Homo sapiens, UniProt P00533); experiment: Inhibition of recombinant wildtype human N-terminal GST-tagged EGFR cytoplasmic domain (669 to 1210 residues) expressed in Sf21 insect cells using Poly(Glu,Tyr) peptide as substrate preincubated for 15 mins followed by substrate addition and measured after 50 mins in presence of ATP by ADP-Glo reagent based assay
[8] = (§1) Selectivity ratio of IC50 for inhibition of wildtype EGFR (unknown origin) transfected in human NCI-H2073 cells preincubated for 2 hrs followed by EGF stimulation for 10 mins by ELISA to IC50 for inhibition of EGFR D770_N771insSVD mutant (unknown origin) transfected in human NCI-H2073 cells incubated for 2 hrs by ELISA; format: cell-based
[9] = target: Epidermal growth factor receptor (Homo sapiens, UniProt P00533, D770-N771INSNPG); experiment: Inhibition of 6His-tagged TEV-GS fused EGFR D770_N771insNPG mutant (G696 to G1210 reisudes) (unknown origin) expressed in Sf21 cells using Poly(Glu,Tyr) peptide as substrate preincubated for 15 mins followed by substrate addition and measured after 30 mins in presence of ATP by ADP-Glo reagent based assay
[10] = Selectivity ratio of Ki/Kinact for inhibition of EGFR D770_N771insNPG mutant (unknown origin) using AQT0099 as substrate to Ki/Kinact for inhibition of wildtype EGFR (unknown origin) using AQT0099 as substrate
[11] = target: T2, Epidermal growth factor receptor (Homo sapiens, UniProt P00533, D770-N771INSSVD); experiment: Inhibition of EGFR D770_N771insSVD mutant (unknown origin) phosphorylation transfected in human NCI-H2073 cells incubated for 2 hrs by ELISA; format: cell-based
[12] = target: T1, Epidermal growth factor receptor; experiment: Inhibition of wildtype EGFR (unknown origin) phosphorylation transfected in human NCI-H2073 cells preincubated for 2 hrs followed by EGF stimulation for 10 mins by HTRF assay; format: cell-based
[13] = target: T1, Epidermal growth factor receptor; experiment: Inhibition of wildtype EGFR (unknown origin) phosphorylation transfected in human NCI-H2073 cells preincubated for 2 hrs followed by EGF stimulation for 10 mins by ELISA; format: cell-based
[14] = as §1, with “HTRF assay” for “ELISA”; format: cell-based
[15] = target: T2, Epidermal growth factor receptor; experiment: Inhibition of EGFR D770_N771insSVD mutant (unknown origin) phosphorylation transfected in human NCI-H2073 cells incubated for 2 hrs by HTRF assay; format: cell-based
[16] = Duration (time) of SCID mouse free plasma concentration cover over EGFR insSVD cell IC50 at 50 mg/kg, po; format: ADME, organism-based; conditions: in vivo
[17] = GSH reactivity of compound in phosphate buffer assessed as half-life at pH 7.4 at 1 uM by LC-MS/MS analysis; format: physicochemical; conditions: phosphate buffer with GSH
[18] = Drug metabolism in human liver microsomes assessed as O-dealkylation mediated fluoro-phenolic metabolite formation incubated for 60 mins by LC-MS/MS analysis; format: ADME, Microsome; conditions: 1 h
[19] = Antitumor activity against human NCI-H2073 cells harboring wildtype EGFR xenografted in female SCID mouse assessed as tumor growth inhibition at 100 mg/kg, po administered once daily for 15 days relative to control; format: functional; conditions: NCI-H2073, 360 h, time 15 day, read-out: TGI
Mus musculus = experiment: In vivo inhibition of EGFR phosphorylation in female SCID mouse xenografted with NCI-H2073 cells harboring EGFR D770_N771insSVD mutant at 100 mg/kg, po measured after 1 to 6 hrs by immunoblotting analysis; format: functional, organism-based; conditions: time 1-6 hrs
[20] = Toxicity in female SCID mouse xenografted with human NCI-H2073 cells harboring EGFR D770_N771insSVD mutant assessed as body weight loss at 100 mg/kg, po administered once daily for 14 days; format: organism-based; conditions: in vivo, 336 h, time 14 day
[21] = Antitumor activity against human NCI-H2073 cells harboring EGFR D770_N771insSVD mutant xenografted in female SCID mouse assessed as tumor growth inhibition at 100 mg/kg, po administered once daily for 14 days relative to control; format: functional; conditions: NCI-H2073, 336 h, time 14 day, read-out: TGI
MDR1 = experiment: Efflux ratio of apparent permeability across basolateral to apical side over apical to basolateral side in MDCKII-MDR1 cells at 1 uM incubated for 2 hrs by LC-MS/MS analysis; format: ADME, cell-based, Canis lupus familiaris; conditions: dog, MDCK-MDR1

Sequence of Epidermal growth factor receptor (Homo sapiens, UniProt P00533, D770-N771INSNPG) (P00533 whole entry, looked up, stated change not applied, the tested form may be a part): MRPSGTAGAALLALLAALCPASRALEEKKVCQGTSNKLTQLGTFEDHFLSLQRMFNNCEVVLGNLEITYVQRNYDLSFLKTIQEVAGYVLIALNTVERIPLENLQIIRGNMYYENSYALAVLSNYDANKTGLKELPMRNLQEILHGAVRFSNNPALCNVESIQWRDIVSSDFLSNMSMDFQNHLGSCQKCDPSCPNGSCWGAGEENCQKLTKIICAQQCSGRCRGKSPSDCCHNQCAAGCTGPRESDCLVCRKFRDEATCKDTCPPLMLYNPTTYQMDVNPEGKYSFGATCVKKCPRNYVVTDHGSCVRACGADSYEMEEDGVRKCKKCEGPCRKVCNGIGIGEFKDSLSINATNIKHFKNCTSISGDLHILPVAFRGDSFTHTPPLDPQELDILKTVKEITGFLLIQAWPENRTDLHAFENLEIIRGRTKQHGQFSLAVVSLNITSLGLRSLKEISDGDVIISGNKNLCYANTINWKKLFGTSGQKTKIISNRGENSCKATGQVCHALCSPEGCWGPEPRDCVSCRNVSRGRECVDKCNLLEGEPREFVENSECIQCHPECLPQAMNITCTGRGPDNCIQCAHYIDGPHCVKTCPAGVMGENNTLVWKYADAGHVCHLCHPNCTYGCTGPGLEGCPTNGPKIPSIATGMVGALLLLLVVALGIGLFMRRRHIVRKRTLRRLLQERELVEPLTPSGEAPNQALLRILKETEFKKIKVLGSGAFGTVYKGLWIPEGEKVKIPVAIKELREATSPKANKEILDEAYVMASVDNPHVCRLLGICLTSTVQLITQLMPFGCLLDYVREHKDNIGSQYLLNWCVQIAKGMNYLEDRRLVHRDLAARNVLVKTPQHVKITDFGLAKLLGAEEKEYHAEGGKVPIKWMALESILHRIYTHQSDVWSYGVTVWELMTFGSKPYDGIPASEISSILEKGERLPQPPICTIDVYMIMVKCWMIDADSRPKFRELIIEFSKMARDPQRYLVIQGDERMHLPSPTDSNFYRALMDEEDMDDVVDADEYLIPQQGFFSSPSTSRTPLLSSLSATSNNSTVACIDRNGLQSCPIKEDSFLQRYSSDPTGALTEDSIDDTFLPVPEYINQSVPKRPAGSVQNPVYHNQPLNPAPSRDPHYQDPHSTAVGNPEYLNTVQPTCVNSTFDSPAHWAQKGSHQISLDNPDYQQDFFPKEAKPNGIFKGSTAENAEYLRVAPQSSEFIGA
T2 sequence (P00533 whole entry, looked up, stated change not applied): as the sequence (P00533 whole entry, looked up, stated change not applied, the tested form may be a part) above
T1 sequence (P00533 whole entry, the tested form may be a part): as the sequence (P00533 whole entry, looked up, stated change not applied, the tested form may be a part) above

Compound	microsomal CLint at 1 µM [1] [µL/min/mg]	logD at 2 h [2]	hepatocyte CLint at 1 µM [4] [µL/min/1e6 cells]	further results
C=CC(=O)N1C[C@@H](n2cc(-c3ccncc3)c(-c3cccc(OCc4ccc5c(c4)CN(C)C5=O)c3)n2)C[C@@H]1C	> 300	3	–	–
C=CC(=O)N1C[C@@H](n2cc(-c3ccncc3)c(-c3cccc(OCc4ccc5c(c4)CN(C)C5=O)c3)n2)C[C@H]1C	> 300	3.2	–	–
C=CC(=O)N1CC(n2cc(-c3ccncc3)c(-c3cccc(/C=C/c4ncc(C5CC5)o4)c3)n2)C1	51	4.4	48	hepatocyte CLint at 1 µM [3]: 64 µL/min/1e6 cells
C=CC(=O)N1CC[C@H](n2cc(-c3ccncc3)c(-c3cccc(NC(=O)c4ccc5c(c4)CN(C)C5=O)c3)n2)C1	58	2.2	21	Papp at 10 µM [5]: < 0.36 ×10⁻⁶ cm/s
C=CC(=O)Nc1cc(Nc2ncc(C(=O)OC(C)C)c(-c3cn(C)c4ccccc34)n2)c(OC)cc1N(C)CCN(C)C [MOBOCERTINIB]	–	–	–	Ratio IC50 [6]: > 0.4; IC50 [7]: 1 nM; Ratio IC50 [8]: 1.4; IC50 [9]: < 3 nM; Selectivity ratio [10]: 0.63; IC50 [11]: 22 nM; IC50 [12]: 37 nM; IC50 [13]: 30 nM; Ratio IC50 [14]: 1.1; IC50 [15]: 34 nM
C=CC(=O)N1CC[C@H](n2cc(-c3ccncc3)c(-c3cccc(NC(=O)c4cccc(OC)c4F)c3)n2)C1	175	2.9	51	Papp at 10 µM [5]: 42 ×10⁻⁶ cm/s
C=CC(=O)N1CC[C@H](n2cc(-c3ccncc3)c(-c3cccc(COc4ccc5c(c4)CN(C)C5=O)c3)n2)C1	> 300	3	128	–
C=CC(=O)N1C[C@@H](n2cc(-c3ccncc3)c(-c3cc(COc4ccc5c(c4)CN(C)C5=O)ccc3F)n2)C[C@H]1C	> 300	3.3	55	–
C=CC(=O)N1CC[C@H](n2cc(-c3ccncc3)c(-c3cc(OCc4ccc5c(c4)CN(C)C5=O)ccc3F)n2)C1	> 300	2.7	–	–
C=CC(=O)N1CC[C@@H](n2cc(-c3ncnc4cc(OC)c(OC)cc34)c(-c3cccc(OC)c3)n2)C1	135	2.4	–	–
C=CC(=O)N1C[C@@H](n2cc(-c3ccncc3)c(-c3cccc(COc4ccc5c(c4)CN(C)C5=O)c3)n2)C[C@H]1C	> 300	3.4	58	hepatocyte CLint at 1 µM [3]: 30 µL/min/1e6 cells; Time [16]: 3 h
C=CC(=O)Nc1ccc(OC)c(Nc2cc(-c3c[nH]nc3-c3cccc(OCc4ccc5c(c4)CN(C)C5=O)c3)ccn2)c1	> 300	3.9	–	Papp at 10 µM [5]: 7.5 ×10⁻⁶ cm/s
C=CC(=O)N1CC[C@H](n2cc(-c3ccncc3)c(-c3cccc(/C=C/c4cc5n(n4)CCOC5)c3)n2)C1	167	3.5	62	–
C=CC(=O)N1CC[C@H](n2cc(-c3ccncn3)c(-c3cccc(/C=C/c4ncc(C5CC5)o4)c3)n2)C1	202	3.7	67	–
C=CC(=O)N1C[C@@H](n2cc(-c3ccncc3)c(-c3ccc(F)c(COc4ccc5c(c4)CN(C)C5=O)c3)n2)C[C@H]1C	> 300	3.6	173	–
C=CC(=O)N1CC[C@H](n2cc(-c3ccncc3)c(-c3cc(F)cc(OCc4ccc5c(c4)CN(C)C5=O)c3)n2)C1	> 300	3.3	–	IC50 [12]: > 28000 nM; Ratio IC50 [14]: > 52; IC50 [15]: 540 nM
COc1cc2ncnc(-c3c[nH]nc3-c3cccc(OCc4ccc5c(c4)CN(C)C5=O)c3)c2cc1OC	> 300	–	–	–

Compound	microsomal CLint at 1 µM [1] [µL/min/mg]	logD at 2 h [2]	hepatocyte CLint at 1 µM [4] [µL/min/1e6 cells]	further results
C=CC(=O)N1CC[C@H](n2cc(-c3ccncc3)c(-c3cccc(OCc4ccc5c(c4)CN(C)C5=O)c3)n2)C1	> 264	2.6	–	hepatocyte CLint at 1 µM [3]: 64 µL/min/1e6 cells
C=CC(=O)N1CC[C@H](n2cc(-c3ncnc4cc(OC)c(OC)cc34)c(-c3cccc(OC)c3)n2)C1	157	2.4	–	–
C=CC(=O)N1CC(Oc2cc3c(-c4c[nH]nc4-c4cccc(OC)c4)ncnc3cc2OC)C1	33	2	–	–
C=CC(=O)NCCn1cc(-c2ncnc3cc(OC)c(OC)cc23)c(-c2cccc(OC)c2)n1	116	2.4	–	half-life at 1 µM [17]: 49.3 h
C=CC(=O)N1CC(n2cc(-c3ccncc3)c(-c3cccc(NC(=O)c4cn(C5CC5)cn4)c3)n2)C1	19	2.2	58	hepatocyte CLint at 1 µM [3]: 150 µL/min/1e6 cells
C#CC(=O)NCCn1cc(-c2ncnc3cc(OC)c(OC)cc23)c(-c2cccc(OC)c2)n1	105	2.1	–	half-life at 1 µM [17]: 0.917 h
Fc1ccccc1COc1cccc(-c2n[nH]cc2-c2ccncc2)c1	226	> 4.9	–	–
Fc1ccccc1COc1cccc(-c2n[nH]cc2-c2ccncn2)c1	117	3.5	–	–
C=CC(=O)N1CC[C@H](n2cc(-c3ccncc3)c(-c3ccc(F)c(OCc4ccc5c(c4)CN(C)C5=O)c3)n2)C1	> 300	2.9	–	Drug metabolism [18]: Metabolite_Detected
CN1Cc2cc(COc3cccc(-c4n[nH]cc4-c4ccncc4)c3)ccc2C1=O	77	3.1	–	Ratio IC50 [6]: > 50; IC50 [7]: > 7400 nM; IC50 [9]: 150 nM
C=CC(=O)N[C@H]1C=C(C)c2c(-c3cnc4ccccc4c3)c3c(N)ncnc3n2C1 [CLN-081]	–	–	–	IC50 [7]: < 3 nM; Ratio IC50 [8]: 3.4; IC50 [9]: < 3 nM; Selectivity ratio [10]: 0.79; inhibition in vivo at 100 mg/kg [19]: 63%; IC50 [11]: 57 nM; IC50 [12]: 77 nM; inhibition (Mus musculus): Active; Activity [20]: < 10%; IC50 [13]: 190 nM; Ratio IC50 [14]: 3.6; inhibition in vivo at 100 mg/kg [21]: 69%; IC50 [15]: 21 nM
C=CC(=O)Nc1ccc(OC)c(Nc2nccc(-c3c[nH]nc3-c3cccc(OC)c3)n2)c1	46	4.1	–	Papp at 10 µM [5]: 64 ×10⁻⁶ cm/s; half-life at 1 µM [17]: 5.35 h
C=CC(=O)N1CC[C@H](n2cc(-c3ccncc3)c(-c3cccc(/C=C/c4ccc5c(c4)CN(C)C5=O)c3)n2)C1	200	3.9	28	efflux ratio at 2 h, 1 µM (MDR1): 29; IC50 [12]: > 16000 nM; hepatocyte CLint at 1 µM [3]: 29 µL/min/1e6 cells; Ratio IC50 [14]: > 73; Time [16]: 0 h; IC50 [15]: 220 nM
C=CC(=O)N1CC[C@H](n2cc(-c3ccncc3)c(-c3cccc(NC(=O)c4ncc(C5CC5)o4)c3)n2)C1	166	3.1	187	Papp at 10 µM [5]: 30 ×10⁻⁶ cm/s
C=CC(=O)N1CC[C@H](n2cc(-c3ccncc3)c(-c3cccc(NC(=O)c4cn(C5CC5)cn4)c3)n2)C1	64	2.5	38	hepatocyte CLint at 1 µM [3]: 42 µL/min/1e6 cells; Time [16]: 1 h
C=CS(=O)(=O)NCCn1cc(-c2ncnc3cc(OC)c(OC)cc23)c(-c2cccc(OC)c2)n1	192	2.2	–	half-life at 1 µM [17]: 1.15 h

Reference: ChEMBL document CHEMBL5506057, “Discovery and Optimization of Potent, Efficacious and Selective Inhibitors Targeting EGFR Exon20 Insertion Mutations” (J Med Chem, 2024)
